Measured values as given in patent US20260294928A1, “BTK INHIBITOR FOR TREATING MULTIPLE SCLEROSIS” (BIOGEN MA INC., priority 2023, published 2026).
Read-outs that look alike come from different tables or passages of the source.

Legend:
[1] = Part 1 safety and tolerability in healthy subjects; assay type: in vivo, human; settings: all regimens tested, Part 1 (150, 250, 350 mg; fed, fasted, divided dose)
Experimental: (§1) In a single center, open-label study, several formulations and treatment regimens were explored to reduce pharmacokinetic (PK) variability and achieve steady state Ctrough>221 ng/mL while limiting the drug exposure (Cmax). The study included 3 parts.
(§2) IR tablet (50 mg) was tested in 19 healthy subjects at different dose levels (150, 250 and 350 mg) and in the fed (moderate fat and high fat) and fasted state and as a divided daily dose (12 h apart). Subject were treated with BIIB091 up to 4 periods. To facilitate comparisons between different regimens, subjects were randomized into 2 groups (Group 1 and Group 2) pre-dose on Day 1 in Periods 1, 3 and 4. Period 2 was utilized as a reference period, where all subjects were dosed with the BIIB091 IR DiC (drug in capsule).

[2] = target: CYP3A4 (Homo sapiens, UniProt P08684); test: Part 2 PK of BIIB091 with CYP3A4 inhibitor itraconazole, fed; assay type: in vivo; settings: role: substrate, 200 mg BIIB091 IR tablet
Experimental: (§3) A new cohort of 12 healthy male and female (non pregnant and non-lactating) subjects were enrolled and dosed. Subjects were randomized into two groups of 6 subjects, to receive the regimen sequence MNO across 3 study periods (Group 1) or regimen sequence MNP across 3 study periods (Group 2). Both groups were dosed in the fed state in Periods 1 and 2, i.e. BIIB091 alone in the fed state in Period 1, and BIIB091 with the CYP3A4 inhibitor itraconazole in the fed state in Period 2. For the PPI assessment in Period 3, subjects were dosed with BIIB091 co-administered with rabeprazole in the fasted or fed state in order to assess PK under each of these conditions.

[3] = Part 2 PK of BIIB091 with PPI rabeprazole, fasted or fed; assay type: in vivo, human; settings: 200 mg BIIB091 IR tablet with rabeprazole 20 mg
Experimental: as §3

[4] = Part 3 multiple dose PK, 250 mg BID x 7 days with moderate fat meal; assay type: in vivo, human; settings: 250 mg BID 12 h apart x 7 days
Experimental: (§4) 250 mg BIIB091 was dosed in a new cohort of 10 healthy subjects twice a day (BID) 12 h apart with a moderate fat meal for 7 days. […] Geomean Ctau (CV %) was 407 (48.3%) ng/mL which exceeded the target of >221 ng/mL, with 9/10 subjects achieving the target.

[5] = system: CD69 upregulation on total B cells (CD19+); test: CD69 inhibition on ex vivo stimulated total B cells (CD19+), Part 3; assay type: in vivo, human; settings: for inhibition at 250 mg: Homo sapiens, B-cell, 250 mg BID
Experimental: as §4

[6] = Part 1 PK study of BIIB091 formulations and regimens in healthy subjects; assay type: in vivo, human
Experimental: as §1, §2

Sequence of CYP3A4 (P08684 whole entry): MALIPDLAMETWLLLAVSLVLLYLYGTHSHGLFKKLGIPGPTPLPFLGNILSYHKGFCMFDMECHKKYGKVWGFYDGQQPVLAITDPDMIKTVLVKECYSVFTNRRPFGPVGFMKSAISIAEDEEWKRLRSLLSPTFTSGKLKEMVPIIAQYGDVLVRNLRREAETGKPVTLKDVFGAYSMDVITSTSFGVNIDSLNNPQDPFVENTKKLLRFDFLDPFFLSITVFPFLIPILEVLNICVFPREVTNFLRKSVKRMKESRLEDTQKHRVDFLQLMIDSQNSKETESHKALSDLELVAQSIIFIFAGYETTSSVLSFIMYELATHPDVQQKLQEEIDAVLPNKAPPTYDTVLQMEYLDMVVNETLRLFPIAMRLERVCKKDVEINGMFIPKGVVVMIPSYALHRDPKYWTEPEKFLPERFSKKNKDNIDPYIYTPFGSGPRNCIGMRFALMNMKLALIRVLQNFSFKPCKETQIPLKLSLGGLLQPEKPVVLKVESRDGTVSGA

- CYP3A4 substrate ([2]; fed, with itraconazole 200 mg): moderate CYP3A4 substrate
- BIIB091 exposure with CYP3A4 inhibitor co-administration ([2]; inhibitor itraconazole 200 mg, moderate-fat fed): increased
- BIIB091 bioavailability with PPI co-administration, fasted state ([3]; fasted): decreased
- BIIB091 bioavailability with PPI together with food, compared with fasted condition ([3]; moderate-fat fed): increased
- accumulation ratio for AUCtau [4]: 1.75
- accumulation ratio for Cmax [4]: 1.49
- subjects achieving the target Ctau of >221 ng/mL [4]: 9/10
- concentration at 12 h ([4]; human, in vivo, po, read-out: Geomean Ctau (CV %)): 407 ng/mL
- C (Cmax) with HF food ([6]; high fat food): reduced
- T (Tmax) with HF food ([6]; high fat food): delayed
- AUC with MF meal ([6]; moderate fat meal): similar
- C with MF meal ([6]; moderate fat meal): similar
SMILES: Cn1cc(Nc2nccc(-c3ccc4c(c3)CN(C3COC3)CC[C@H]4NC(=O)c3cn(C(C)(C)C)nn3)n2)cn1 [Compound 1, (R)-1-(tert-butyl)-N-(8-(2-((1-methyl-1H-pyrazol-4-yl)amino)pyrimidin-4-yl)-2-(oxetan-3-yl)-2,3,4,5-tetrahydro-1H-benzo[c]azepin-5-yl)-1H-1,2,3-triazole-4-carboxamide]
- safety and tolerability [1]: generally safe and well tolerated
- CD69 inhibition at 24 h post final dose ([5]; 250 mg BID x 7 days, 24 h post final dose): returned to baseline
- inhibition at 250 mg ([5]; 12 h post-dose, day 1, read-out: CD69 mean inhibition): 86.8%
- inhibition at 250 mg ([5]; 12 h post-dose, day 7, read-out: CD69 mean inhibition): 85.4%
- inhibition at 250 mg ([5]; Day 1 and 7, from 1 h to 8 h post-dose, ex vivo stimulated B cells, read-out: CD69 inhibition range): 96.5 to 99.2%
- inhibition at 250 mg ([5]; Day 1 and 7, from 1 h to 8 h post-dose, ex vivo stimulated B cells, read-out: mean inhibition of CD69 upregulation from Day 1 pre-dose baseline): > 90%
- Tmax with MF meal compared to HF ([6]; moderate fat meal): less of a delay in Tmax compared to high fat
